T1: protein from Thermoanaerobacter italicus (clade 1) (Thermoanaerobacter thermocopriae, UniProt D3T426)
T1 sequence (D3T426 1-453): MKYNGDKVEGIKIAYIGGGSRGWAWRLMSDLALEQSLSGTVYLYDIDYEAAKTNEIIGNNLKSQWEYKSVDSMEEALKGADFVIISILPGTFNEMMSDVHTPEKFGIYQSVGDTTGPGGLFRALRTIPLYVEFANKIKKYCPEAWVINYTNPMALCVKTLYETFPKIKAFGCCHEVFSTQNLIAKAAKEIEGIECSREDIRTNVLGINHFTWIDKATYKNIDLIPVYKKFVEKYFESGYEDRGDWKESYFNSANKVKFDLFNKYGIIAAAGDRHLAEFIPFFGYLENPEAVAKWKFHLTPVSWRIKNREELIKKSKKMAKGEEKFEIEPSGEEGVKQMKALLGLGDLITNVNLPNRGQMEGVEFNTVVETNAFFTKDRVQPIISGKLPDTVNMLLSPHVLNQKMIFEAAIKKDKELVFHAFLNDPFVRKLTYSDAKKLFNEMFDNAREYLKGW

T2: Clostridium phytofermentans Cphy3396 (clade 3) (Lachnoclostridium phytofermentans, UniProt A9KTB9)
T2 sequence (A9KTB9 1-466): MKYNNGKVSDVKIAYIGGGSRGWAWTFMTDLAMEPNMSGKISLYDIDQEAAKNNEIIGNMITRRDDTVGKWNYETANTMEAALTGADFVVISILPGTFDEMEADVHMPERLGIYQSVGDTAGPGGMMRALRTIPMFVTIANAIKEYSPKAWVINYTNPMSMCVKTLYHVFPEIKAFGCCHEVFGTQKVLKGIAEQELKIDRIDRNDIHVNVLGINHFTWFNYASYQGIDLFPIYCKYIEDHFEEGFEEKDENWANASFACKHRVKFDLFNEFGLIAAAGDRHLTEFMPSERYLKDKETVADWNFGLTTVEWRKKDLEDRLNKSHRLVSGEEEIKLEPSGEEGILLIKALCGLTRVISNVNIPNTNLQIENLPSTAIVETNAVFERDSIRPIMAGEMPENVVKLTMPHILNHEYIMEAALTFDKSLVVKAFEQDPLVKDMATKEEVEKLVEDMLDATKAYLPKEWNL

B1: LplD (LplDhis6) (Bacillus subtilis subsp. subtilis str. 168) (protein)
chain: MFHISTLDQIKIAYIGGGSQGWARSLMSDLSIDERMSGTVALYDLDFEAAQKNEVIGNHSGNGRWRYEAVSTLKKALSAADIVIISILPGSLDDMEVDVHLPERCGIYQSVGDTVGPGGIIRGLRAVPIFAEIARAIRDYAPESWVINYTNPMSVCTRVLYKVFPGIKAIGCCHEVFGTQKLLAEMVTERLGIEVPRREDIRVNVLGINHFTWITKASYRHIDLLPIFREFSAHYGESGYELEGECWRDSVFCSAHRVAFDLFETYGAIPAAGDRHLAEFLPGPYLKQPEVWKFHLTPISFRKQDRAEKRQETERLIVQQRGVAEKASGEEGVNIIAALLGLGELVTNVNMPNQGQVLNLPIQAIVETNAFITRNRVQPILSGALPKGVEMLAARHISNQEAVADAGLTKDTGLAFQAFLNDPLVQIDRSDAEQLFNDMLQCIMQS

How the values were obtained:
[1] = target: T1, protein from Thermoanaerobacter italicus (clade 1); experiment: colorimetric assay of α-galacturonidase activity; format: biochemical; conditions: cofactors NAD+, Mn2+, DTT as for GH4 enzymes
[2] = target: T2, Clostridium phytofermentans Cphy3396 (clade 3); experiment: colorimetric assay of α-galacturonidase activity; format: biochemical; conditions: cofactors NAD+, Mn2+, DTT as for GH4 enzymes
[3] = substrate: O=C(O)[C@H]1O[C@H](Oc2ccc([N+](=O)[O-])cc2)[C@H](O)[C@@H](O)[C@H]1O; experiment: discontinuous colorimetric assay, p-nitrophenol release; format: biochemical, Bacillus subtilis; conditions: 25 mM Tris-HCl pH 7.5, 0.1 mM NAD+, 1 mM MnCl2, 5 mM DTT, ~35-38 °C

Row | Molecule | colorimetric assay of α-galacturonidase activity [1] | colorimetric assay of α-galacturonidase activity [2] | Km [3] [µM] | kcat [3] [s⁻¹]
1 | O=C(O)[C@H]1O[C@H](Oc2ccc([N+](=O)[O-])cc2)[C@H](O)[C@@H](O)[C@H]1O [pNPαGalUA] | pNPαGalUA served as substrate in all assays of protein activity | pNPαGalUA served as substrate in all assays of protein activity |  | 
2 | B1 |  |  | 0.62 ± 0.11 | 3.6

Source: publication PMC3608401 (FEBS letters, 2013)
